By IC50 is commonly meant the concentration that gives 50% inhibition.

For 26 compounds, IC50 results are on record in patent US20080221086A1, “Novel Inhibitors of Glutaminyl Cyclase” (PROBIODRUG AG, priority 2006, published 2008).

Chain of hQC (Q16769 29-361): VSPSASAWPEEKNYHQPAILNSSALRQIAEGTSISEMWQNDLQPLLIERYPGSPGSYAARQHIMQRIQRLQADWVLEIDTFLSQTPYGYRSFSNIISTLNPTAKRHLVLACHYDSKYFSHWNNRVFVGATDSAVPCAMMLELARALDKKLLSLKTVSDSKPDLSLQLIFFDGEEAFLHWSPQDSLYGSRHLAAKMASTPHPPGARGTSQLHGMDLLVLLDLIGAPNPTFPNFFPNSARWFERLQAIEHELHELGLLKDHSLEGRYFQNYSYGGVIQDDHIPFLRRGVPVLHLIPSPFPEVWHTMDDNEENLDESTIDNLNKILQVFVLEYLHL

The assay deals with hQC (Homo sapiens, UniProt Q16769). Briefly: Fluorometric assay of glutaminyl cyclase (QC) inhibition, H-Gln-βNA or H-Gln-AMC substrate. Type of assay: biochemical. Particulars: read-out: IC50. In outline:
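Ki values were obtained by fitting progress curves to a competitive-inhibition equation, and the rapid screen used 4 mM inhibitor with substrate at 1 KM. Both readouts coupled pyroglutamyl aminopeptidase at pH 8.0 and 30° C: H-Gln-βNA at 0.2 mM (ex/em 320/410 nm) or H-Gln-AMC (380/460 nm).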
For `O=C1NC(=Nc2ccc(Oc3ccccc3)cc2)C(CO)N1CCCn1ccnc1` (centres unmarked) [Compound 102, 5-Hydroxymethyl-1-(3-imidazol-1-yl-propyl)-4-4-phenoxy-phenylimino-imidazolidin-2-one], the IC50 amounted to 8.5 µM. For `CCCCC1C(=Nc2ccc(Oc3ccccc3)cc2)NC(=O)N1CCCn1ccnc1` (centres unmarked) [Compound 103, 5-Butyl-1-(3-imidazol-1-yl-propyl)-4-4-phenoxy-phenylimino-imidazolidin-2-one], the IC50 amounted to 9.4 µM.

Turning to `CCCC1/C(=N\CCC(c2ccccc2)c2ccccc2)NC(=O)N1CCCn1ccnc1` (centres unmarked) [Compound 104, 4-3,3-Diphenyl-propylimino-1-(3-imidazol-1-yl-propyl)-5-propyl-imidazolidin-2-one], the IC50 worked out at 9.4 µM.

Take `O=C1N/C(=N\CCC(c2ccccc2)c2ccccc2)C(c2ccccc2)N1CCCn1ccnc1` (centres unmarked) [Compound 105, 4-3,3-Diphenyl-propylimino-1-(3-imidazol-1-yl-propyl)-5-phenyl-imidazolidin-2-one]: the IC50 was 3.1 µM.

For `O=C1N/C(=N\CCC(c2ccccc2)c2ccccc2)C(C2CCC=CO2)N1CCCn1ccnc1` (centres unmarked) [Compound 106, 5-(3,4-Dihydro-2H-pyran-2-yl)-4-3,3-diphenyl-propylimino-1-(3-imidazol-1-yl-propyl)-imidazolidin-2-one], the IC50 was found to be 7.6 µM.

On to `O=C1N/C(=N\CCC(c2ccccc2)c2ccccc2)C(c2cccc(F)c2F)N1CCCn1ccnc1` (centres unmarked) [Compound 107], for which the IC50 came to 6.7 µM.

For the compound `O=C1N/C(=N\CCC(c2ccccc2)c2ccccc2)C(c2cc(F)cc(F)c2)N1CCCn1ccnc1` (centres unmarked) [Compound 108, 5-(3,5-Dihydro-phenyl)-4-3,3-diphenyl-propylimino-1-(3-imidazol-1-yl-propyl)-imidazolidin-2-one], the IC50 was found to be 6.7 µM. Next, `O=C1NC(=NCCC(c2ccccc2)c2ccccc2)C(c2ccc(Cl)c(F)c2)N1CCCn1ccnc1` (centres unmarked) [Compound 109, 5-(4-Chloro-3-fluoro-phenyl)-4-3,3-diphenyl-propylimino-1-(3-imidazol-1-yl-propyl)-imidazolidin-2-one]: 7.6 µM; `O=C1N/C(=N\CCC(c2ccccc2)c2ccccc2)C(c2ccccc2Cl)N1CCCn1ccnc1` (centres unmarked) [Compound 110, 5-(2-Chloro-phenyl)-4-3,3-diphenyl-propylimino-1-(3-imidazol-1-yl-propyl)-imidazolidin-2-one]: 6.7 µM. With `O=C1N/C(=N/CCC(c2ccccc2)c2ccccc2)C(CO)N1CCCn1ccnc1` (centres unmarked) [Compound 111, 4-3,3-Diphenyl-propylimino-5-hydroxymethyl-1-(3-imidazol-1-yl-propyl)-imidazolidin-2-one] the figure was 9.4 µM. On to `O=C1N/C(=N\CCC(c2ccccc2)c2ccccc2)C(c2ccccc2F)N1CCCn1ccnc1` (centres unmarked) [Compound 112, 4-3,3-Diphenyl-propylimino-5-(2-fluoro-phenyl)-1-(3-imidazol-1-yl-propyl)-imidazolidin-2-one], for which the IC50 worked out at 6.7 µM.

For `O=C1N/C(=N\CCC(c2ccccc2)c2ccccc2)C(c2cccc(F)c2)N1CCCn1ccnc1` (centres unmarked) [Compound 113, 4-3,3-Diphenyl-propylimino-5-(3-fluoro-phenyl)-1-(3-imidazol-1-yl-propyl)-imidazolidin-2-one], the IC50 turned out to be 7.6 µM. In the case of `O=C1NC(=NCC2CCCO2)C(c2cccc(F)c2F)N1CCCn1ccnc1` (centres unmarked) [Compound 114, 5-(2,3-Difluoro-phenyl)-1-(3-imidazol-1-yl-propyl)-4-tetrahydro-furan-2-ylmethylimino-imidazolidin-2-one], the IC50 turned out to be 8.5 µM.

Consider `O=C1NC(=NCC2CCCO2)C(c2cc(F)cc(F)c2)N1CCCn1ccnc1` (centres unmarked) [Compound 115, 5-(3,5-Difluoro-phenyl)-1-(3-imidazol-1-yl-propyl)-4-tetrahydro-furan-2-ylmethylimino-imidazolidin-2-one], for which the concentration for half-maximal inhibition (IC50) was found to be 7.6 µM. For `C/N=C1/NC(=O)N(c2ccc3[nH]cnc3c2)C1c1ccc2[nH]ccc2c1` (centres unmarked) [Compound 116, 1-(1H-Benzoimidazol-5-yl)-5-(1H-indol-5-yl)-4-methylimino-imidazolidin-2-one], the IC50 stood at 0.004 µM.

`O=C1N/C(=N/C2CC2)C(c2ccc(Cl)c(F)c2)N1c1ccc2[nH]cnc2c1` (centres unmarked) [Compound 117, 1-(1H-Benzoimidazol-5-yl)-5-(4-chloro-3-fluoro-phenyl)-4-cyclopropylimino-imidazolidin-2-one]: the IC50 turned out to be 1.3 µM. As for `Cc1ccc(C2/C(=N/C(C)(C)CC(C)(C)C)NC(=S)N2c2ccc3nc[nH]c3c2)cc1` (centres unmarked) [Compound 118, 1-(3H-Benzoimidazol-5-yl)-4-1,1,3,3-tetramethyl-butylimino-5-p-tolyl-imidazolidine-2-thione], the IC50 came to 5.8 µM. For the compound `O=C(C/N=C1/NC(=O)N(c2ccc3[nH]cnc3c2)C1c1cc(Br)cs1)N1CCCCC1` (centres unmarked) [Compound 119, 1-(1H-Benzoimidazol-5-yl)-5-(4-bromo-thiophen-2-yl)-4-2-oxo-2-piperidin-1-yl-ethylimino-imidazolidin-2-one], the 50% inhibitory concentration (IC50) was determined as 6.7 µM. Next, `Cc1ccc2c(C3/C(=N\CCCc4ccccc4)NC(=O)N3c3ccc4[nH]cnc4c3)c[nH]c2c1` (centres unmarked) [Compound 120, 1-(1H-Benzoimidazol-5-yl)-5-(6-methyl-1H-indol-3-yl)-4-3-phenyl-propylimino-imidazolidin-2-one]: 1.3 µM; `O=C1N/C(=N\C2CCc3ccccc32)C(c2ccnc3ccccc23)N1c1ccc2[nH]cnc2c1` (centres unmarked) [Compound 121, 1-(1H-Benzoimidazol-5-yl)-4-indan-1-ylimino-5-quinolin-4-yl-imidazolidin-2-one]: 0.4 µM. With `O=C1N/C(=N\C2CCCCC2O)C(c2ccc3[nH]ccc3c2)N1c1ccc2[nH]cnc2c1` (centres unmarked) [Compound 122, 1-(1H-Benzoimidazol-5-yl)-4-2-hydroxy-cyclohexylimino-5-(1H-indol-5-yl)-imidazolidin-2-one] the figure was 0.4 µM; with `C/N=C1/NC(=O)N(c2ccc3[nH]cnc3c2)C1c1ccc2c(c1)OCCO2` (centres unmarked) [Compound 123, 1-(1H-Benzoimidazol-5-yl)-5-(2,3-dihydro-benzo1,4dioxin-6-yl)-4-methylimino-imidazolidin-2-one], 0.4 µM. Next, `O=c1c(C2/C(=N/Cc3ccccc3)NC(=S)N2c2ccc3[nH]cnc3c2)coc2ccccc12` (centres unmarked) [Compound 124, 3-{3-(1H-Benzoimidazol-5-yl)-5-benzylimino-2-thioxo-imidazolidin-4-yl}-chromen-4-one]: 3.1 µM. Regarding `O=C(C/N=C1\NC(=S)N(c2ccc3[nH]cnc3c2)C1c1cc(Br)cc(Br)c1)N1CCSCC1` (centres unmarked) [Compound 125, 2-(1-(1H-benzo[d]imidazol-5-yl)-5-(3,5-dibromophenyl)-2-thioxoimidazolidin-4-ylideneamino)-1-thiomorpholinoethan-one], the IC50 was 2.2 µM. Next, `N#Cc1cccc(/N=C2\NC(=S)N(c3ccc4[nH]cnc4c3)C2c2ccc3c(c2)OCCO3)c1` (centres unmarked) [Compound 126, 3-(1-(1H-benzo[d]imidazol-5-yl)-5-(2,3-dihydrobenzo[b][1,4]dioxin-6-yl)-2-thioxoimidazolidin-4-ylideneamino)benzo-nitrile]: 4.9 µM.

In the case of `Cc1ccc2occ(C3/C(=N/C4CCCCC4O)NC(=O)N3c3ccc4[nH]cnc4c3)c(=O)c2c1` (centres unmarked) [Compound 127, 1-(1H-Benzoimidazol-5-yl)-4-2-hydroxy-cyclohexylimino-5-(6-methyl-4-oxo-4H-chromen-3-yl)-imidazolidin-2-one], the 50% inhibitory concentration (IC50) came to 4 µM.
